Each block holds one molecule with its values, some of them ahead of it. Ends that are not written are not given here.
Tests used:
[1] = test system: Primary fibroblasts from Progeria patients; test: Senescence screen (SA B-galactosidase staining) of polypeptide library; assay type: cell-based, human; conditions: 10 μM, 48 hours
Description: Primary fibroblasts isolated from Progeria patients can constitute a genetic model of early aging and cellular senescence in humans. Primary fibroblasts from Progeria patients were cultured in DMEM (Dulbecco's Modified Eagle's Medium) supplemented with 10% v.v. fetal bovine serum (FBS), and 1% v.v. of penicillin/streptomycin solution (1,000 U·mL-1). Cells were kept in a 5% CO2, 37° C. and 95% humidity atmosphere. After expansion, these cells were seeded in 96-well plates (1,000 cells per well) and, 6 hours after plating, were incubated with individual polypeptides from a proprietary library at 50 μM for 48 hours. Negative control comprised untreated cells, which received vehicle only; positive control group comprised cells incubated with 10 μM ABT-263, a senolytic compound for the same period. […] Three independent experiments including three technical replicates were performed.

HGPS HDFs = test: PP2A modulators and senescence markers; assay type: cell-based, human; conditions: 48 hs; for cellular senescence (SA-BGal+ cells): Okadaic Acid 5-7.5 nM or DT-061 7.5 μM
Description: Since PP2A has not been explored for cellular senescence modulation, whether the treatment of HGPS HDFs with a PP2A inhibitor (Okadaic acid—OA) and activator (DT-061) would result in the modulation of cellular senescence markers was assessed. HGPS HDFs were treated with 5-7.5 nM Okadaic Acid or 7.5 μM DT-061 for 48 hs. Some cells were treated with both 5 nM Okadaic Acid and 12.5 μM Peptide 14 for 48 hours. The senescence level was determined by SA β-galactosidase staining and normalized to total cell number.

[2] = test system: human primary fibroblasts isolated from 3 healthy donors; test: Etoposide-induced senescence; assay type: cell-based; conditions: etoposide 20 μM
Description: Cellular senescence may be caused by several different stimuli. In order to assess whether Peptide 14 was effective against UVB-induced and chemically-induced senescence, human primary fibroblasts isolated from 3 healthy donors were used. These cells were cultured in DMEM (Dulbecco's Modified Eagle's Medium) supplemented with 10% v.v. fetal bovine serum (FBS), and 1% v.v. of penicillin/streptomycin solution (1,000 U mL-1). Cells were kept in a 5% CO2, 37° C. and 95% humidity atmosphere. After expansion, these cells were seeded in 96-well plates (4,000 cells per well) and, 6 hours after plating, were submitted to either etoposide (20 μM) treatment for 24 hours, or exposed twice to 0.05 J/cm^2 of UVB radiation. […] After incubation, relative cellular senescence (assessed by the activity of senescence associated β-galactosidase staining relative to untreated control) was analyzed and plotted in column graphs. ATRX foci were also assessed following ATRX immunofluorescence staining. Graphs were built using the average ATRX foci detected per nuclei. […] Data was analyzed using with either t-test or ANOVA followed by a Bonferroni post-hoc test. Statistical significance was determined as p-values equal or lower than 0.05 (FIG. 6).

[3] = test system: ex vivo skin biopsies (donors); test: Topical application to ex vivo skin biopsies; assay type: cell-based, human; conditions: vs untreated
From the text: Senescent cell accumulation in the skin has been related to facial wrinkling and perceived age. A formulation having a concentration of Peptide 14 in the formulation was adjusted (0.01% w/v) to support the skin penetration of the Peptide 14 of up to 2% into the dermis was applied to ex vivo skin biopsies (from donors). A topical retinol application group was used as an “anti-aging” control, due to its widespread and decades-long use in the field, along with a no treatment control group.

[4] = test system: peripheral blood mononuclear cells (PBMCs); test: PBMC mRNA of IFN-γ and IL-10 (RT-qPCR); assay type: cell-based, human
Description: The effect of Peptide 14 on T cell activation was assessed by treating PBMCs stimulated with phytohaemagglutinin (PHA) with Peptide 14. PHA usually can trigger lymphocyte activation and cell division. PBMCs that were untreated with PHA or Peptide 14 served as negative control of lymphocyte activation. In the phytohaemagglutinin group, the PBMCs were activated with 5 μg/mL of PHA for 5 days. In the Peptide 14 and PHA group, the PBMCs were activated with 5 μg/mL of PHA and treated with 3.12 μM of Peptide 14 for 5 days. In the Peptide 14 group, the PBMCs were treated with 3.12 μM of Peptide 14 for 5 days. In the rapamycin group, the PBMCs were treated with 100 nM of rapamycin, a well-known immunosuppressive drug for 5 days. In the rapamycin+PHA group, the PBMCs were activated with 5 μg/mL of PHA and treated with 100 nM of rapamycin for 5 days. […] IFN-γ is typically produced in lymphocytes stimulated by PHA and may be used as marker of PBMC stimulation level. IL-10 is an anti-inflammatory cytokine. The cells from each of the experimental groups were processed for total RNA isolation, reverse transcription of the RNA and RT-qPCR. Data is represented as relative expression normalized to ubiquitous gene expression and untreated PBMC negative control.

[5] = test system: Primary fibroblasts from Progeria patients; test: Senescence in Progeria fibroblasts (LKGIL, WLKGI); assay type: cell-based, human; conditions: 500 nM, 5 μM, 50 μM

Molecule: CC1(C)CCC(c2ccc(Cl)cc2)=C(CN2CCN(c3ccc(C(=O)NS(=O)(=O)c4ccc(N[C@H](CCN5CCOCC5)CSc5ccccc5)c(S(=O)(=O)C(F)(F)F)c4)cc3)CC2)C1 [ABT-263]
cellular toxicity (cell number) [1]: cellular toxicity | relative cellular senescence (SA B-galactosidase staining) ([1]; positive control): significant reduction of cellular senescence

Molecule: O=S(=O)(N[C@@H]1CCC[C@H](N2c3ccccc3Oc3ccccc32)[C@H]1O)c1ccc(OC(F)(F)F)cc1 [DT-061]
cellular senescence (SA-BGal+ cells) (HGPS HDFs): SA-BGal+ cell reduction

cellular senescence level (SA β-galactosidase) ([2]; 24 hours (senescence inducer)): significant increase
Molecule: COc1cc([C@@H]2c3cc4c(cc3[C@@H](O[C@@H]3O[C@@H]5CO[C@@H](C)O[C@H]5[C@H](O)[C@H]3O)[C@H]3COC(=O)[C@H]23)OCO4)cc(OC)c1O [Etoposide, etoposide]
ATRX foci nuclear accumulation (average ATRX foci/cell) ([2]; 24 hours): significant increase

Molecule: C=C1[C@@H](O)[C@@H]2O[C@]3(CC[C@H](/C=C/[C@@H](C)[C@@H]4CC(C)=C[C@@]5(O[C@H](C[C@@](C)(O)C(=O)O)CC[C@H]5O)O4)O3)CC[C@H]2O[C@@H]1[C@@H](O)C[C@H](C)[C@H]1O[C@@]2(CCCCO2)CC[C@H]1C [OA, Okadaic acid]
cellular senescence (SA-BGal+ cells) (HGPS HDFs): significant increase | CDKN1A expression (HGPS HDFs; Okadaic Acid 5-7.5 nM): significant increase | CXCL1 (SASP marker) expression (HGPS HDFs; Okadaic Acid 5-7.5 nM): significant increase | IL6 (SASP marker) expression (HGPS HDFs; Okadaic Acid 5-7.5 nM): significant increase

Ki-67 expression, epidermis [3]: significantly increased
Molecule: CC1=C(/C=C/C(C)=C/C=C/C(C)=C/CO)C(C)(C)CCC1 [Retinol]
B2M expression, dermis [3]: significantly decreased | HAS2 expression, dermal samples [3]: increase | IL8 level, epidermis [3]: significantly increased | P16 mRNA expression, dermis [3]: significant increase | P16 mRNA expression, epidermis [3]: significant increase | dermal Ki67 expression [3]: significantly induced | dermal collagen 1 expression [3]: significantly induced | keratin 1 expression, epidermis [3]: significantly reduced | keratin 14 expression, epidermis [3]: significantly reduced

Molecule: CO[C@H]1C[C@@H]2CC[C@@H](C)[C@@](O)(O2)C(=O)C(=O)N2CCCC[C@H]2C(=O)O[C@H]([C@H](C)C[C@@H]2CC[C@@H](O)[C@H](OC)C2)CC(=O)[C@H](C)/C=C(\C)[C@@H](O)[C@@H](OC)C(=O)[C@H](C)C[C@H](C)/C=C/C=C/C=C/1C [rapamycin]
relative expression level of IL-10 (negative control = 1) ([4]; single agent, 5 days (Peptide 14 3.12 μM; rapamycin 100 nM; PHA 5 μg/mL)): about 2.5 | relative expression level of IL-10 (negative control = 1) ([4]; with 5 μg/mL PHA, 5 days (Peptide 14 3.12 μM; rapamycin 100 nM)): about 0.2

Molecule: LKGIL [LKGIL]
cellular toxicity (relative cell number) [5]: No cellular toxicity

Molecule: WLKGI [WLKGI]
cellular toxicity (relative cell number) [5]: No cellular toxicity

— patent US20250352608A1, “POLYPEPTIDES HAVING ANTI-INFLAMMATORY EFFECTS AND USES THEREOF” (OneSkin, Inc., priority 2020, published 2025)
